Measurements as given in patent US20100003711A1, “Methods to identify therapeutic agents” (THE SCRIPPS RESEARCH INSTITUTE, priority 2005, published 2010).

Legend:
[1] = tested on: U-937 monocytes cells; experiment: Monocyte adhesion to endothelial cell monolayers by fluorescence spectroscopy; type: cell-based; settings: alone or in complex with LDL
[2] = tested on: J774.1 macrophages; experiment: Lipid-loading assay (foam cell formation); type: cell-based, murine; settings: LDL 100 μg/mL with 4a or 5a (20 μM), 72 h, unactivated J774.1 macrophages
Procedure: Lipid-loading assay (foam cell formation). J774.1 macrophages were incubated in ATCC-recommended media containing 10% fetal bovine serum under a controlled atmosphere of 5 or 7% CO2 at 37° C., in 8-well chamber slides. […] At termination, cells were washed twice with PBS (pH 7.4). The cells were then fixed with 6% (v/v) paraformaldehyde in PBS for 30 minutes, rinsed with propylene glycol for 2 minutes and lipids were stained with 5 mg/ml Oil Red 0 for 8 minutes. The cells were counterstained with Harris' hematoxylin for 45 seconds, and background staining was removed with 6% paraformaldehyde followed by washing once in PBS and once in tap water. Cover slips were mounted onto the glass slides using glycerol and the slide preparations were examined by light microscopy. The number of lipid-laden cells was scored out of a total of at least 100 cells counted in a single field in each slide, and expressed as a percentage of total cells. Photographs were taken at 100× magnification.

[3] = Aldolization of secoketoaldehyde 4a with atherosclerotic artery and blood fractions (1H NMR); type: in vitro ADME, human; settings: in the presence of lyophilized PBS
Procedure: Aldolization of secoketoaldehyde 4a with atherosclerotic artery and bloodfractions. […] To this solution was added either a) atherosclerotic artery (2.1 mg) that had been homogenized in PBS (1 ml) in a tissue homogenizer and then lyophilized to dryness, b) lyophilized human blood (1 ml), c) lyophilized human plasma (1 ml) or d) PBS lyophilized (1 ml). At time points samples were removed and analyzed by ^1H NMR vide supra.

[4] = tested on: E-selectin (CD62E); experiment: Endothelial adhesion molecule expression by ELISA, E-selectin; type: cell-based, human
Procedure: Endothelial cell surface adhesion molecule expression was measured by ELISA, using anti-human CD54 (ICAM-1), CD106 (VCAM-1) and CD62E (E-Selectin) antibodies (Leinco Technologies, Inc., St. Louis, Mo.). The ELISA method was modified from previously described procedures.
Cells were then incubated with antibodies to VCAM-1, E-selectin, or ICAM-1 diluted 1:400 in PBS containing 5% FCS at 37° C. for 30 min. Wells were washed two times with PBS, then incubated with horseradish peroxidase (HRP)-conjugated goat anti-mouse IgG (Southern Biotechnology Associates, Birmingham, Ala., USA) in PBS/5% FCS at 37° C. for 30 min. The wells were washed four times with PBS, then incubated with H2O2/3,3′,5,5′-tetramethyl-benzidine peroxidase substrate (Pierce Chemical, Rockford, Ill., USA) for 30 min in the dark. The reaction was stopped by adding 25 μl of 8 N H2SO4, and the plates read on a microplate reader, blanking on wells stained with only secondary antibody. Each assay was performed in triplicate and the data are reported as the mean±SEM as a percentage of the expression level of the vehicle. To study the effect of cholesterol ozonation product 5a concentration (5-50 μM) on E-selectin expression, the assay was performed in an identical fashion as described above, with each point being the mean±SEM of at least duplicate measurements.

[5] = tested on: murine macrophage J774A.1; experiment: Modified Boyden chamber migration (chemotaxis) assay; type: cell-based
Procedure: Chemotaxis and invasion assays were performed using a modified Boyden chamber migration assay. Zwirner et al. (1998) Eur. J. Immunol. 28: 1570-77; Wilkinson (1988) Methods Enzymol. 162: 38-50. Assays were set up on MultiScreen-MIC plates (Millipore, Billerica, Mass., USA) with polyvinylpyrrolidone-free polycarbonate membranes (5 μm pore size). Cells (murine macrophage J774A.1) were washed and resuspended in serum-free DMEM containing 0.2% BSA at 1×10^6 cells/ml. Fifty microliters of cells were added to the upper wells and 150 μl of chemoattractant in DMEM/0.2% BSA were added to the lower wells of the microchamber. Incubation time was for 4 h at 37° C. in an 8% CO2 atmosphere. After swiping cells off the upper side of the membrane, cells on the lower side were visualized by either staining and phase contrast microscopy, or fluorescence. Cells that had adhered to the membrane were stained using a DiffQuik staining kit (Dade Behring, Newark, Del.). Each experiment was performed in triplicate and the numbers of migrating cells were counted in five fields at ×200. Cells harvested with PBS-EDTA for fluorescent labeling were washed two times with PBS, then resuspended in serum-free medium containing calcein AM (5 μM). Cells were incubated for 30 min (37° C., 5% CO2) with gentle intermittent mixing. Calcein-labeled cells were washed twice, and calcein fluorescence ([…]) was measured using a SPECTRAmax™ GEMINI dual-scanning microplate spectrofluorometer. Fluorescence measurements were compared to a standard curve, generated by dilution of cells in PBS/BSA in 100 μl, dispensed into 96-well plates. Fluorescence was quantified as described above.

[6] = Aldolization of ketoaldehyde 4a with amino acids (1H NMR); type: physicochemical; settings: DMSO-d6 (800 μl) and D2O (80 μl) without amino acid
Procedure: Aldolization of ketoaldehyde 4a with amino acids. […] To this solution was added 1 equivalent of either: a) L-proline, b) glycine, c) L-lysine hydrochloride or d) L-lysine ethyl ester dihydrochloride. At time points the samples were analyzed by ^1H NMR.

[7] = molecular target: LDL / apoB-100 (Homo sapiens, UniProt P04114); experiment: Circular dichroism of LDL secondary structure; settings: LDL 100 μg/ml with 10 μM compound, PBS pH 7.4, 37° C., up to 48 h; normal LDL ~40±2%
Chain of LDL / apoB-100 (P04114 28-4563): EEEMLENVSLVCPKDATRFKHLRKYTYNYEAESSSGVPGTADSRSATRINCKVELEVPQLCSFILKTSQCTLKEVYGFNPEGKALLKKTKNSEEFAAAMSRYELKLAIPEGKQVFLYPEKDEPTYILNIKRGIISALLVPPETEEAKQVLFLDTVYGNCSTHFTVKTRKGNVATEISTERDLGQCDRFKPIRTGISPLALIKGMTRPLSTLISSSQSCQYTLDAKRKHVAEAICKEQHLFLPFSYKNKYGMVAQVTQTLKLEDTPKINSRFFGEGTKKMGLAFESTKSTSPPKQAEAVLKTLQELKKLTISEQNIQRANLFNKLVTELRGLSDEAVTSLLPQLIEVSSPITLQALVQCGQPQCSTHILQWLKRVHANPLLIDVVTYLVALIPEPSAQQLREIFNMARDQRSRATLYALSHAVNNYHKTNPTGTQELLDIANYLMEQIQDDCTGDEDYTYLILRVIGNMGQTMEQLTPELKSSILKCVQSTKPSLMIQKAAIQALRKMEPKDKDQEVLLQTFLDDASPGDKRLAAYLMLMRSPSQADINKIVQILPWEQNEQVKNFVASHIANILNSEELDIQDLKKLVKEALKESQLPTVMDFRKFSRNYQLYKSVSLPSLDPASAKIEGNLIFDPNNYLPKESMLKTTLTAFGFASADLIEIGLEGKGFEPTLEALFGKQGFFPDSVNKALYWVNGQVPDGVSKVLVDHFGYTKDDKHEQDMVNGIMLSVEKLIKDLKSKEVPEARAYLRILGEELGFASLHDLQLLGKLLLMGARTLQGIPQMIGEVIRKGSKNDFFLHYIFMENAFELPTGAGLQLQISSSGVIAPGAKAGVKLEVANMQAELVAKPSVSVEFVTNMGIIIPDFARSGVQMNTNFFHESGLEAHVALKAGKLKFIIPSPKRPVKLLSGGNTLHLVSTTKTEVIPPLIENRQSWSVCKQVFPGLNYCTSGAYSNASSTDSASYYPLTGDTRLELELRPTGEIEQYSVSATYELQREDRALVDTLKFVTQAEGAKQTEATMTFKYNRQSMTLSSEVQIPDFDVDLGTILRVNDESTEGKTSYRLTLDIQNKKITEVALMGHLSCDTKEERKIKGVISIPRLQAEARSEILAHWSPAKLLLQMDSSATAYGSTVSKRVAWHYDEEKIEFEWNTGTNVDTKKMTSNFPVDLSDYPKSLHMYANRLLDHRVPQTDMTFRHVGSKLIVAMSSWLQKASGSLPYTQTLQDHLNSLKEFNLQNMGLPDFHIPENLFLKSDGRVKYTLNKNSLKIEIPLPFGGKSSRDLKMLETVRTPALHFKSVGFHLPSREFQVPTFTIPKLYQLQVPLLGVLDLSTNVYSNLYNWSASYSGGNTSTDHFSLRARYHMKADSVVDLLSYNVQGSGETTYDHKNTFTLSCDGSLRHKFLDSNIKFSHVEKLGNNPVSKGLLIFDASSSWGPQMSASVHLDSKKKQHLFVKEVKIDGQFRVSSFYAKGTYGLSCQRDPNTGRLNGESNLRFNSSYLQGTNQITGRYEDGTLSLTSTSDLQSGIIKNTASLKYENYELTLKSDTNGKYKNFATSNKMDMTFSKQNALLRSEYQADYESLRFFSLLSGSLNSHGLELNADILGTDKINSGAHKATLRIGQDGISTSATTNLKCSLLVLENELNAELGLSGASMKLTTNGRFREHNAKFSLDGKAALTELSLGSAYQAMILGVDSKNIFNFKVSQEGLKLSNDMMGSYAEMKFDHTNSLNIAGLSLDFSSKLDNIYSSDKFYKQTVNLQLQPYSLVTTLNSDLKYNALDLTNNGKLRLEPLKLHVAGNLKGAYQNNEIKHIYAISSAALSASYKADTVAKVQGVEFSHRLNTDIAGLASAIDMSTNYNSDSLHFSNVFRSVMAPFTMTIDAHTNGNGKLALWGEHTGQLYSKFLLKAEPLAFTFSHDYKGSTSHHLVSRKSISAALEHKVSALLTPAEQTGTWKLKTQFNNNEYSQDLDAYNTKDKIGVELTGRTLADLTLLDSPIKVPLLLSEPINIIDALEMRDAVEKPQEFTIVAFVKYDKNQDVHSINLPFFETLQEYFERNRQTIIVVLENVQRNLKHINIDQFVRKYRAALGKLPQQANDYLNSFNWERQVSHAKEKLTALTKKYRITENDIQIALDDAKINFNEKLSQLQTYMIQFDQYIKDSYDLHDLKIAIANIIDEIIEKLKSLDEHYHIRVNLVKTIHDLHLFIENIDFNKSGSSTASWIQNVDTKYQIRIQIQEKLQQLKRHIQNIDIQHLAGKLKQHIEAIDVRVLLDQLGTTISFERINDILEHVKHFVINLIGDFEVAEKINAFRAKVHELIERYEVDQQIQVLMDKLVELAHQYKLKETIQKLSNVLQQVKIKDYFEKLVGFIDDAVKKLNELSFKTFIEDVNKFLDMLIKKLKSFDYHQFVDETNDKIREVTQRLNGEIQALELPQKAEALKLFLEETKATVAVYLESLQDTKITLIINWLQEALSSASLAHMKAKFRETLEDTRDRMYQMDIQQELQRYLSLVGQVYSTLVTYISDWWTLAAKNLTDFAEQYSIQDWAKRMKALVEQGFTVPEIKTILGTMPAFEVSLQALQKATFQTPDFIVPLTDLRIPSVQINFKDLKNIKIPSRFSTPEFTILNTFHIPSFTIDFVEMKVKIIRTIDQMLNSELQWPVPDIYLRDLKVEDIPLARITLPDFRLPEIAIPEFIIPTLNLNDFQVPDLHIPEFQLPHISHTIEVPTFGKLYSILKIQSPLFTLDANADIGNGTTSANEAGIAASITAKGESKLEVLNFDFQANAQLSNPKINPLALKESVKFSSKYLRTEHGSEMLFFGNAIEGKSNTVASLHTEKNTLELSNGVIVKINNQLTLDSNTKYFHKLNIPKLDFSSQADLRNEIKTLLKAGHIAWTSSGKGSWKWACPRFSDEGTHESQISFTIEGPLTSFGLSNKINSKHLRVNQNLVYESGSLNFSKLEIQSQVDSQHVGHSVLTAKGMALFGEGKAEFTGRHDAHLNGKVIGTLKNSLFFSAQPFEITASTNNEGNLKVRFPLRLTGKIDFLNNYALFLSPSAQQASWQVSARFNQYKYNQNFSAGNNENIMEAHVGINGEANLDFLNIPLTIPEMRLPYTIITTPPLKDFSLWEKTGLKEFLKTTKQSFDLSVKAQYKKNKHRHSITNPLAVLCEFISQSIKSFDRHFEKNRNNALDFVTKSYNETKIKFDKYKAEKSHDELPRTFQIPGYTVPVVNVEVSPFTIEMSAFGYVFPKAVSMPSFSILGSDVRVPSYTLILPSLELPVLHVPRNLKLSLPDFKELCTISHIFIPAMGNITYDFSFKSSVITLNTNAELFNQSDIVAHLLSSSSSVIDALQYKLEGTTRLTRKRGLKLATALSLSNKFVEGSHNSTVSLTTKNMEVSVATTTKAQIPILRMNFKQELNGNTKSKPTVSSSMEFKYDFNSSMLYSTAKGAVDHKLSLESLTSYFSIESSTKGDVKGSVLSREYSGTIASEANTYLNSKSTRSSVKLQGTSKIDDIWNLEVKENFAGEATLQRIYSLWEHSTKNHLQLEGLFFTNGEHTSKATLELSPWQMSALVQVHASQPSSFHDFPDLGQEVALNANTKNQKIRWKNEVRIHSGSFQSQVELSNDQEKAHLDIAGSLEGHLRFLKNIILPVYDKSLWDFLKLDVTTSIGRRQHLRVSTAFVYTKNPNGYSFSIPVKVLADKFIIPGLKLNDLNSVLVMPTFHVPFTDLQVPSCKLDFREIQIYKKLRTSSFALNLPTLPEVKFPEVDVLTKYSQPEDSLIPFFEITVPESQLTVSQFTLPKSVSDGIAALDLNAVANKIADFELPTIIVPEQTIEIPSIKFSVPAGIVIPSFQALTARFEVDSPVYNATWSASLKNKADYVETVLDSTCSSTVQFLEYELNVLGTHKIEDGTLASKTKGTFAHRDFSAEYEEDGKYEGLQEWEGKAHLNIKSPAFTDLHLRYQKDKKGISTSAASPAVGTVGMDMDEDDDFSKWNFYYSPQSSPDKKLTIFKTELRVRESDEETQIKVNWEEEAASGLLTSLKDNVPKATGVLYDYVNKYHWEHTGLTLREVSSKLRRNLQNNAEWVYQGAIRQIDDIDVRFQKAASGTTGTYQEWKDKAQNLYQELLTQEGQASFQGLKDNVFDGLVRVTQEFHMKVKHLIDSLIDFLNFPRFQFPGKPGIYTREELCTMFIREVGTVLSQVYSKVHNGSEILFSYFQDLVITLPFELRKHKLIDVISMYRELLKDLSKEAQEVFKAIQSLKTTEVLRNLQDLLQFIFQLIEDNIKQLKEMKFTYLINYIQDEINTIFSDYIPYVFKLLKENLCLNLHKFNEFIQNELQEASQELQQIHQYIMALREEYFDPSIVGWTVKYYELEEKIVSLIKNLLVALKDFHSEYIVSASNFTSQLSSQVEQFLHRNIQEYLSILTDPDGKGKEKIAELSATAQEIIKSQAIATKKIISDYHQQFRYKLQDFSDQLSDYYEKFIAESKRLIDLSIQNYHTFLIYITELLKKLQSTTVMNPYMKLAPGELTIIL
Procedure: Spectra were recorded in the peptidic range (200-260 nm). To increase the signal-to-noise ratio, multiple spectra (three) were averaged for each measurement. The deconvolution of the molar elipticity spectra for each measurement was performed using the CDPro suite of software (by Narasimha Sreerama from Colorado State University) on a Dell PC.

## CC(C)CCC[C@@H](C)[C@H]1CCC2C(CC=O)C([C@@]3(C)CC[C@H](O)CC3=O)CC[C@@]21C (some centres unmarked) [4a, 3βHydroxy-5-oxo-5,6-secocholestan-6-al]
[1]
  adhesion of U-937 monocytes to endothelial cell monolayers, above that of LDL alone: neither ozonolysis product 4a nor 5a, alone or in complex with LDL, nor CuOx-LDL significantly increased adhesion
[2]
  lipid-loading of macrophages / foam cell formation: began lipid-loading and foam cells began to appear
[3]
  aldolization of 4a: no aldolization
[4]; HAAE-1, 1.25 μM complexed with LDL (100 μg/mL protein)
  induction of E-selectin levels: 2 fold
[4]; HAAE-1, 50 μM complexed with LDL (100 μg/mL protein)
  induction of E-selectin levels: about 8 fold
[4]; HAAE-1, not complexed with LDL
  selectin (E-selectin) expression: no effects
[5]; 0-25 μM, 4 h, P<0.001
  recruitment (migration) of macrophages: dose-dependent recruitment of macrophages
[5]; compound co-incubated with BSA
  migration of macrophages: macrophage migration still occurs
[5]; compound complexed with native LDL (100 μg/ml)
  migration of macrophages: no significant migration
[6]
  aldolization of 4a: no aldolization
[7]
  a helical structure of LDL: ~23±5%
